Key:
[1] = biological target: T1, βarr2 recruitment to agonist-activated β2V2R (Homo sapiens, UniProt P32121); assay: DiscoveRx PathHunter β-arrestin recruitment assay in U2OS cells; type: cell-based; details: series of compound concentrations, 30 min pretreatment, isoproterenol dose-response
T1 construct: host or cells: U2OS
Method: β-arrestin recruitment to the agonist-activated receptor (02V2R) was measured using the DiscoveRx PathHunter β-arrestin assay (Ahn, S. et al. Allosteric “beta-blocker” isolated from a DNA-encoded small molecule library. Proc Natl Acad Sci U SA 114, 1708-1713, doi:10.1073/pnas.1620645114 (2017)). […] Agonist-stimulated recruitment of βarr2 to the receptor results in the formation of functionally active β-gal enzyme. Addition of substrate generates a chemiluminescence signal directly correlated to the extent of recruitment. U2OS cells co-expressing β2V2R and βarr2 were plated in 96-well clear-bottomed plates at a density of 25,000 cells per well (80 μL per well), 24 hours prior to compound treatment. On the day of experiment, cells were first treated with compound or vehicle for 30 min, followed by agonist (Iso) stimulation for 60 min at 37° C. Cells were then treated with PathHunter™ detection reagents for 90 min at 37° C., and luminescence signals were measured using a CLARIOstar microplate reader (BMG Labtech Inc., Cary, N.C.).

[2] = biological target: βarr2 (Rattus norvegicus, UniProt P29067); assay: Negative-stain electron microscopy, 2D class averages of βarr2; set-up: final βarr2 (truncated βarr2 at 394) concentration of ˜1 mg/mL; made in house; details: control βarr 97% monomeric
Sequence of βarr2 (P29067 1-394): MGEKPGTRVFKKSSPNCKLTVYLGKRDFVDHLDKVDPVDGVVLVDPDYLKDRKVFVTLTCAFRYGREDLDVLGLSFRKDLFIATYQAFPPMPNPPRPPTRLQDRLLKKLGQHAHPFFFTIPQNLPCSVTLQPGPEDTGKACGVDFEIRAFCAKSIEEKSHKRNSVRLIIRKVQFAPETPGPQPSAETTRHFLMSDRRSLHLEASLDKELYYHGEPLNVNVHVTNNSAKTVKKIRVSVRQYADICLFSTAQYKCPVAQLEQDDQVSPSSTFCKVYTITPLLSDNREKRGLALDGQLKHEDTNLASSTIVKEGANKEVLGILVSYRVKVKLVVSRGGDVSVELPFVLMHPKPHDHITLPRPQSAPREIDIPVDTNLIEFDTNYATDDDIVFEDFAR
Method: To prepare for EM visualization of the architecture and structural organization of βarr2-Cmpd30 complexes, purified βarr2 (394) was diluted to 0.5 μM and incubated with 5 μM Cmpd-30 or vehicle (DMSO) in HN buffer (20 mM HEPES pH 7.4 and 150 mM NaCl) for 7 min at room temperature followed by dilution 10× into HN buffer containing 1 μM Cmpd-30, before negative staining. The positive control, βarr2 bound to IP6 sample was prepared similarly (5 μM and 250 μM, respectively) and was diluted 100× into HN buffer containing 10 μM IP6. Grids were prepared using conventional negative-staining protocols as described previously (Peisley, A. & Skiniotis, G. 2D Projection Analysis of GPCR Complexes by Negative Stain Electron Microscopy. Methods Mol Biol 1335, 29-38, doi:10.1007/978-1-4939-2914-6_3 (2015). Briefly, 3 μL of samples were applied onto a glow-discharged EM carbon-coated copper grid, adsorbed on the grid surface, blotted, stained, and air dried before imaging. EM grids were examined with a FEI Tecnai G2 Twin electron microscope and operated at an acceleration voltage of 120 kV. Images were recorded with an Eagle 2K CCD camera at a magnification of ×65,200 and a defocus value of ˜1.5 μm. Two-dimensional EM reference-free alignment and classification of particle projections were performed with the iterative stable alignment and clustering procedure (ISAC)(Yang, Z., et al., Iterative stable alignment and clustering of 2D transmission electron microscope images. Structure 20, 237-247, doi:10.1016/j.str.2011.12.007 (2012)). EM single particles were both automatically and manually selected using Boxer (part of the EMAN 2.1 software suite)(Tang, G. et EMAN2: an extensible image processing suite for electron microscopy. J Struct Biol 157, 38-46, doi:10.1016/j.jsb.2006.05.009 (2007)). A total of ˜250,000 0° particles projections were picked representing all the three βarr2 samples (with vehicle, Cmpd-30 or IP6) and windowed into 96×96-pixel images (with the RELION 2.1-beta-1 software package) and subjected to ISAC. […]

T1 sequence (P32121 whole entry): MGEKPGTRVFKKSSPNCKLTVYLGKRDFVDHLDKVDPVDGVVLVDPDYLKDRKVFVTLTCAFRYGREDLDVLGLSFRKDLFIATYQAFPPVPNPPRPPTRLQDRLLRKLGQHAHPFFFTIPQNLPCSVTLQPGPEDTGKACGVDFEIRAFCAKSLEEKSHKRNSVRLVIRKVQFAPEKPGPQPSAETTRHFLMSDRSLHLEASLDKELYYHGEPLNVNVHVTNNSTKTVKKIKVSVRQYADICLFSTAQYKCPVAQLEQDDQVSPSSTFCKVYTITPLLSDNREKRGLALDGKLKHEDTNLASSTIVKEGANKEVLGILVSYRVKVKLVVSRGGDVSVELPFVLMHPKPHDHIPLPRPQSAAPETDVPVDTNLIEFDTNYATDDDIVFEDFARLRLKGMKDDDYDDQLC

Row | SMILES | maximal agonist induced βarr recruitment response [1] | class averages represented as homo-oligomers (dimers/trimers) [2] [%]
1 | COc1cc(Cc2nccc3cc(OC)c(OC)cc23)c(C(C)=O)cc1OC [C29, 1-[2-[(6,7-dimethoxyisoquinolin-1-yl)methyl]-4,5-dimethoxyphenyl]ethanone] | significantly diminished | –
2 | O=P(O)(O)OC1C(OP(=O)(O)O)C(OP(=O)(O)O)C(OP(=O)(O)O)C(OP(=O)(O)O)C1OP(=O)(O)O (centres unmarked) [IP6, inositol hexakisphosphate, reference compound] | – | 100

From patent publication US20220315574A1, “Beta-Arrestin-Modulating Compounds and Methods of Using Same” (Duke University, priority 2019, published 2022)
